Experimental data taken from article PMC11648822, “Lactam Truncation Yields a Dihydroquinazolinone Scaffold with Potent Antimalarial Activity that Targets PfATP4” (Chemmedchem, 2024).

Assays:
[1] = target: T1, PfATP4 (membranes prepared from 3D7 parasites) (Plasmodium falciparum, UniProt A0A143ZZK9); experiment: PfATP4 Na+ assay (membrane ATPase), 3D7 membranes; format: biochemical, P. falciparum; conditions: for effect on membrane ATPase activity (PfATP4): 2 μM, high-[Na+] (152 mM), cipargamin not present
T1 construct: The membranes were prepared from isolated trophozoite‐stage 3D7 parasites; endogenous in cells; host or cells: P. falciparum 3D7 trophozoites (membrane preparation)
Procedure: Figure 4 Dihydroquinazolinone analogs 14 and 36 (WJM062) inhibit Na^+‐ATPase activity in membranes prepared from isolated P. falciparum parasites, consistent with them being PfATP4 inhibitors. (A) The effects of dihydroquinazolinone compounds (2 μM), dihydroartemisinin (DHA; 50 nM; negative control) and 0.2 % v/v DMSO (solvent‐only control) on membrane ATPase activity under high‐[Na^+] conditions (152 mM Na^+) and low‐[Na^+] conditions (2 mM Na^+; stemming from the addition of 1 mM Na2ATP) in the presence and absence of the PfATP4 inhibitor cipargamin (50 nM). The membranes were prepared from isolated trophozoite‐stage 3D7 parasites. The Pi produced is expressed as a percentage of that measured in the 152 mM Na^+ Control. The data are from four independent experiments performed with different membrane preparations; the symbols show the data from individual experiments and the bars show the mean (+SEM). In individual experiments, the Pi produced in the 152 mM Na^+ Control varied from 66 to 96 nmol per mg (total) protein per min. A repeated measures ANOVA with a post hoc Tukey test was used to compare the (pre‐normalised) data for different compounds and conditions. For comparisons between different conditions for the same test compound (or for the Control), significant differences are shown with black asterisks. For comparisons between the Control and a compound under the same test condition, significant differences are shown with coloured asterisks (in this case, grey asterisks, as the only significant differences were between the control and the dihydroquinazolinone compounds in the 152 mM Na^+ condition). ***P<0.001. (B) Concentration‐dependence of the effects of dihydroquinazolinone compounds on PfATP4‐associated ATPase activity in membranes prepared from 3D7 parasites. The data are the mean (shown + or − SEM) obtained from four independent experiments performed with different membrane preparations, with the exception of the lowest and second‐lowest concentrations of the compounds, for which data are from two and three independent experiments, respectively. (C and D) Potency of dihydroquinazolinone compounds against PfATP4‐associated ATPase activity in membranes prepared from Dd2‐Polδ‐PfATP4^G358S parasites (open triangles) and their Dd2‐Polδ parents (closed triangles). The data are the mean (shown + or − SEM) from four (C) or three (D) independent experiments. In B−D, the Pi production measured in the low‐[Na^+] (2 mM) condition was subtracted from that measured in high‐[Na^+] (152 mM) in the presence of each of the different concentrations of dihydroquinazolinone compounds to calculate the PfATP4‐associated ATPase activity. The PfATP4‐associated ATPase activity is expressed as a percentage of that obtained for the high‐[Na^+] (152 mM) Control.
Membrane ATPase assays were performed using a PiColorLock Gold Phosphate Detection System (Innova Biosciences), essentially as described previously.[25] Membranes were prepared either from isolated 3D7 trophozoites or from isolated Dd2‐Polδ‐PfATP4^G358S [22] and Dd2‐Polδ trophozoites.[26]

Dd2‐PfATP4^WT = target: T2, Dd2‐PfATP4^WT (Plasmodium falciparum, UniProt A0A143ZZK9, G1128R); experiment: PfATP4 Na+ assay (membrane ATPase), Dd2-Polδ parental membranes; format: biochemical, P. falciparum; conditions: membranes from Dd2-Polδ parental parasites
T2 construct: We prepared membranes from Dd2‐Polδ‐PfATP4^G358S parasites (generated previously[22]) and Dd2‐Polδ parental parasites; endogenous in cells; host or cells: P. falciparum Dd2-Polδ trophozoites (membrane preparation)
T2 sequence (A0A143ZZK9 1-1264 G1128R): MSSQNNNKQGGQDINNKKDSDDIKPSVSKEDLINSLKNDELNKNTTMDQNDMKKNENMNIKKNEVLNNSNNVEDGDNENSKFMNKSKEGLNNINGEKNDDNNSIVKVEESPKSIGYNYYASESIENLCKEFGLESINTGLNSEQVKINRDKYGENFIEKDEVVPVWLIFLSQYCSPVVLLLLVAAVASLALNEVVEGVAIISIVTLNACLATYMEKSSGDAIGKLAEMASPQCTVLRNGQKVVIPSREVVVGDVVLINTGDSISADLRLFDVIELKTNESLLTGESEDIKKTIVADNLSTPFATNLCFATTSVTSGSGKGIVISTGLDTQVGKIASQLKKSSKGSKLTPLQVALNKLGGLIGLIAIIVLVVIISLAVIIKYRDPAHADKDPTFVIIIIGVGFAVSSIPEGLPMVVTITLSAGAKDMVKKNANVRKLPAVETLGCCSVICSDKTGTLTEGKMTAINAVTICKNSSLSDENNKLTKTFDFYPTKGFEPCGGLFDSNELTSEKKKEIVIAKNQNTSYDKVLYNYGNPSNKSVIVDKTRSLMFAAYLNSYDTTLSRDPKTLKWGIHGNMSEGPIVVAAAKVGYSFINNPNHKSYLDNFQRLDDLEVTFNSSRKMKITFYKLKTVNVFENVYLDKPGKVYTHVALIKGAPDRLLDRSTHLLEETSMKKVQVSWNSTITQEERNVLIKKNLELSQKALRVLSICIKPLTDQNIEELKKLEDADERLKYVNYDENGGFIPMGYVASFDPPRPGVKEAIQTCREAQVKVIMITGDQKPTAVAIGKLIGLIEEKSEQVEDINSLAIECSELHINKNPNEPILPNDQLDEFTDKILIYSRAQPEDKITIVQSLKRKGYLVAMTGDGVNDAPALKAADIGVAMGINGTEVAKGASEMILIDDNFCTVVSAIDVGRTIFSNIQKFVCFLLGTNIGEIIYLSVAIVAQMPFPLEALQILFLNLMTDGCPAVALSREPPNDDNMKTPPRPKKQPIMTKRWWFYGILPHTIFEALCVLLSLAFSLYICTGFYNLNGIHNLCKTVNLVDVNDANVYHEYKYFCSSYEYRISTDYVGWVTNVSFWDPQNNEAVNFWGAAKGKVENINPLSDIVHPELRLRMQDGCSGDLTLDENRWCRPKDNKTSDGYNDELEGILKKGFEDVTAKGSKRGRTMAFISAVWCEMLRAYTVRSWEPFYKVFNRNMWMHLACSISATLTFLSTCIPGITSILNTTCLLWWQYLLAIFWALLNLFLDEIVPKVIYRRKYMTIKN
Procedure: Figure 4 Dihydroquinazolinone analogs 14 and 36 (WJM062) inhibit Na^+‐ATPase activity in membranes prepared from isolated P. falciparum parasites, consistent with them being PfATP4 inhibitors. (A) The effects of dihydroquinazolinone compounds (2 μM), dihydroartemisinin (DHA; 50 nM; negative control) and 0.2 % v/v DMSO (solvent‐only control) on membrane ATPase activity under high‐[Na^+] conditions (152 mM Na^+) and low‐[Na^+] conditions (2 mM Na^+; stemming from the addition of 1 mM Na2ATP) in the presence and absence of the PfATP4 inhibitor cipargamin (50 nM). The membranes were prepared from isolated trophozoite‐stage 3D7 parasites. The Pi produced is expressed as a percentage of that measured in the 152 mM Na^+ Control. The data are from four independent experiments performed with different membrane preparations; the symbols show the data from individual experiments and the bars show the mean (+SEM). In individual experiments, the Pi produced in the 152 mM Na^+ Control varied from 66 to 96 nmol per mg (total) protein per min. A repeated measures ANOVA with a post hoc Tukey test was used to compare the (pre‐normalised) data for different compounds and conditions. […] In B−D, the Pi production measured in the low‐[Na^+] (2 mM) condition was subtracted from that measured in high‐[Na^+] […] The PfATP4‐associated ATPase activity is expressed as a percentage of that obtained for the high‐[Na^+] […]

T1 sequence (A0A143ZZK9 whole entry): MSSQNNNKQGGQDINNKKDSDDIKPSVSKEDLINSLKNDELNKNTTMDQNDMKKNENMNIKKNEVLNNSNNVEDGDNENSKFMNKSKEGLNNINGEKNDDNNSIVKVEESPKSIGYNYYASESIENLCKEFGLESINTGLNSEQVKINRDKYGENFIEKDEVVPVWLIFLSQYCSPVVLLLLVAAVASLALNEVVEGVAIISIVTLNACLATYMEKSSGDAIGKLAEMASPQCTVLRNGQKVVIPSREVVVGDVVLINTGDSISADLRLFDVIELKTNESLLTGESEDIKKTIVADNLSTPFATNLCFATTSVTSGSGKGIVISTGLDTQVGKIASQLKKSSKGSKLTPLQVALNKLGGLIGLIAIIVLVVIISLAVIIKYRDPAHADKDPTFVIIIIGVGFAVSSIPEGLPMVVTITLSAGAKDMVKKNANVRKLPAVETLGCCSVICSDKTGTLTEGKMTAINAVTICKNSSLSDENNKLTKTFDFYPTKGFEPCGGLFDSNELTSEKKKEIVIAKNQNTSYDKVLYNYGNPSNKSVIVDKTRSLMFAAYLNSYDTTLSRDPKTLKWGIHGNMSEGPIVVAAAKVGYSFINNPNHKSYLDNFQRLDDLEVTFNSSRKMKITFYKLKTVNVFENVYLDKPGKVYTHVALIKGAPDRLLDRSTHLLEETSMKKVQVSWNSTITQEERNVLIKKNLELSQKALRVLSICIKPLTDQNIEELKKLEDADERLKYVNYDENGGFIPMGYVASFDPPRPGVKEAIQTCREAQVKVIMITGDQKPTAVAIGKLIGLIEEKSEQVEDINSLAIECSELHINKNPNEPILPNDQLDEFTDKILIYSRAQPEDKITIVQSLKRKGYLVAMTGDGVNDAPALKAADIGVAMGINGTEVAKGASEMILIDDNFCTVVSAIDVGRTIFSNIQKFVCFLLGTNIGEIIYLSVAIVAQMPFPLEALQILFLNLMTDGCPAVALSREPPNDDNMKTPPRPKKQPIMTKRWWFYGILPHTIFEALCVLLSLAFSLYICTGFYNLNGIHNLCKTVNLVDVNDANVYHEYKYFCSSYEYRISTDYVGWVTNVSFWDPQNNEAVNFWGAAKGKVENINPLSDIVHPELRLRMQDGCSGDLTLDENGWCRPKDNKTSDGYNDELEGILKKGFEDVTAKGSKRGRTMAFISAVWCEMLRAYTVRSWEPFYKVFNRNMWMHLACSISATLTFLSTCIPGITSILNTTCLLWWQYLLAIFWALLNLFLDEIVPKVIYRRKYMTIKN

CN1C(=O)c2ccc(Cl)cc2NC1(C)C(=O)Nc1cncc(Cl)c1 (stereo not drawn) [Compound 14, 7‐Chloro‐N‐(5‐chloro‐3‐pyridyl)‐2,3‐dimethyl‐4‐oxo‐1H‐quinazoline‐2‐carboxamide]
EC50 [1]: 7.2 nM | effect on membrane ATPase activity (PfATP4) [1]: complete inhibition | EC50 (Dd2‐PfATP4^WT): 8.4 nM

COc1cc(F)c2c(c1)NC(C)(C(=O)Nc1cncc(Cl)c1)N(C)C2=O (stereo not drawn) [Compound 36, N‐(5‐Chloropyridin‐3‐yl)‐5‐fluoro‐7‐methoxy‐2,3‐dimethyl‐4‐oxo‐1,2,3,4‐tetrahydroquinazoline‐2‐carboxamide]
EC50 [1]: 8.6 nM | effect on membrane ATPase activity (PfATP4) [1]: complete inhibition | EC50 (Dd2‐PfATP4^WT): 7.8 nM
